Literature values, collected in article PMC7395068, “The evolution of strategies to minimise the risk of human drug-induced liver injury (DILI) in drug discovery and development” (Archives of Toxicology, 2020).
Where two headings read alike, the source gives them in different places.

Tests used:
[1] = cited from earlier work
[2] = tested on: human hepatocytes; settings: cited from earlier work
[3] = cited from earlier work; remark: listed apart in the source
[4] = tested on: THLE-Null and THLE-3A4 cells; settings: In vitro Assay; ref Gustafsson 2014; cited from earlier work
[5] = tested on: HepG2 cells, primary human hepatocytes; settings: cited from earlier work
[6] = cited from earlier work; remark: listed apart in the source
[7] = tested on: rBsep; settings: In vitro Assay; ref Dawson 2012; cited from earlier work
[8] = tested on: primary human hepatocytes, NIH3T3 fibroblasts, BSEP, CYP3A4; settings: In vitro Assay; ref Schadt 2015; cited from earlier work
[9] = tested on: THLE or HepG2 cells, isolated mitochondria, BSEP; settings: In vitro Assay; ref Aleo 2019; cited from earlier work
[10] = tested on: PHH; settings: In vitro Assay; ref Proctor 2017; cited from earlier work
[11] = tested on: hLiMTs; settings: In vitro Assay; ref Proctor 2017; cited from earlier work
[12] = tested on: PHH spheroids; settings: In vitro Assay; ref Vorrink 2018; cited from earlier work
[13] = tested on: HepG2 C3A spheroid, BSEP, Glu/Gal in HepG2 cells, bioactivation; settings: In vitro Assay; ref Williams 2019; cited from earlier work
[14] = tested on: HepG2 cells; settings: In vitro Assay; ref O'Brien 2006; cited from earlier work
[15] = tested on: HepG2 cells; settings: In vitro Assay; ref Persson 2013; cited from earlier work
[16] = tested on: isolated mouse liver mitochondria; settings: In vitro Assay; ref Porceddu 2012; cited from earlier work
[17] = In vitro Assay, ref Garside 2014

Structure (SMILES)	THLE-Null [4]	THLE-Null/3A4 [4]	Cluster 1-6 +VE Assay [5, 17]	DILI Score (FDA) (1-8) ([6]; ref Chen 2011)	Inhibition of rBsep cutoff<1& cmax u>.2 [7]	Inhibition of rBsep cutoff<3 [7]	DILI +VE (5-8), DILI -VE (-4) ([1]; ref Chen 2016)	DILI severity category ([1]; ref Chen 2016)	Partition Hybrid HRM Score [9]	Ro2 Hybrid HRM Score [9]	hLiMTs ATP <20 x Cmax [12]	In vivo DILI ([3]; ref Schadt 2015)	In vivo DILI ([3]; ref Vorrink 2018)	In vivo DILI ([3]; […])	In vivo DILI ([3]; ref Aleo 2019)	In vivo DILI ([3]; ref Dawson 2012)	In vivo DILI ([3]; ref Garside 2014)	In vivo DILI ([3]; ref Gustafsson 2014)	Structural based (HCI) [14]	In vivo DILI ([3]; ref O'Brien 2006)	other results
COc1cc(C)c(/C=C/C(C)=C/C=C/C(C)=C/C(=O)O)c(C)c1C [acitretin]	+VE	+VE	+VE	5	-VE	+VE															DILI +VE (5-8), DILI -VE (-4) ([1]; in vivo): +VE; DILI severity category ([1]; in vivo): vMost-DILI-Concern; Structural based (HCI) [2]: -VE; In vivo DILI ([3]; in vivo): +VE
COC(c1ccccc1)(c1ccccc1)[C@H](Oc1nc(C)cc(C)n1)C(=O)O [ambrisentan]				5			-VE	Ambiguous DILI-concern	-VE	-VE	-VE	-VE	-VE								Cellular toxicity (3T3 cells) [8]: -VE; Combined Assay [8]: -VE; GSH adduct HML [8]: -VE; Hepatocyte cellular toxicity [8]: -VE; MitoTox 3T3 [8]: -VE; TDI CYP3A4 [8]: -VE; hBSEP inhibition [8]: -VE; PHH ATP <100uM [10]: -VE; hLiMTs ATP <100uM [11]: -VE; Bayesian Machine Learning [13]: -VE; In vivo DILI ([3]; ref Proctor 2017): -VE; In vivo DILI ([3]; ref Williams 2019): -VE
CCCNC(=O)NS(=O)(=O)c1ccc(Cl)cc1 [chlorpropamide]	-VE	-VE	-VE	2	-VE	-VE	+VE	vLess-DILI-Concern	-VE	+VE				+VE	+VE	+VE	+VE	+VE			
CN(C)/N=N/c1[nH]cnc1C(N)=O [dacarbazine]	-VE	-VE	-VE	6			+VE	vMost-DILI-Concern	-VE	+VE	+VE (IC20 < 20 × Cmax.tot cut-off)		+VE	+VE	+VE		+VE	+VE			
CNCCCN1c2ccccc2CCc2ccccc21 [desipramine]				3			-VE	Ambiguous DILI-concern		+VE		-VE									PHH ATP <100uM [10]: +VE (IC50 threshold of 100 µM); hLiMTs ATP <100uM [11]: +VE (IC50 threshold of 100 µM); Bayesian Machine Learning [13]: +VE; In vivo DILI ([3]; ref Proctor 2017): +VE; In vivo DILI ([3]; ref Williams 2019): +VE; In vivo DILI ([3]; ref Xu 2008): -VE
C[C@](N)(Cc1ccc(O)c(O)c1)C(=O)O [methyldopa]	-VE	-VE	-VE	8	-VE	-VE	+VE	vMost-DILI-Concern						+VE		+VE	+VE	+VE	-VE	+VE	Cluser analysis [15]: -VE; Structural based (HCI) [15]: +VE; In vivo DILI ([3]; ref Persson 2013): +VE; In vivo DILI ([3]; ref Porceddu 2012): -VE; in vitro data EC2<=1x Cmax [16]: +VE; in vitro data EC20<=2uM [16]: -VE
CC1=C(CC(=O)O)c2cc(F)ccc2/C1=C\c1ccc([S+](C)[O-])cc1 (stereo not shown) [sulindac]	-VE		-VE	8	+VE	+VE	+VE	vMost-DILI-Concern				+VE		+VE	+VE	+VE	+VE	+VE	+VE	+VE	Cellular toxicity (3T3 cells) [8]: -VE; Combined Assay [8]: +VE; GSH adduct HML [8]: +VE; Hepatocyte cellular toxicity [8]: -VE; MitoTox 3T3 [8]: -VE; TDI CYP3A4 [8]: -VE; hBSEP inhibition [8]: -VE; Cluser analysis [15]: -VE; Structural based (HCI) [15]: -VE; Structural based (HCI) ([2]; In vitro Assay, ref Xu 2008): +VE; In vivo DILI ([3]; ref Persson 2013): +VE; In vivo DILI ([3]; ref Porceddu 2012): +VE; In vivo DILI ([3]; ref Xu 2008): +VE; in vitro data EC2<=1x Cmax [16]: +VE; in vitro data EC20<=2uM [16]: +VE
CN(C/C=C/C#CC(C)(C)C)Cc1cccc2ccccc12 [terbinafine]	+VE	-VE	-VE	8			+VE	vMost-DILI-Concern									+VE	+VE	+VE	+VE	In vivo DILI ([3]; ref Porceddu 2012): +VE; in vitro data EC2<=1x Cmax [16]: +VE; in vitro data EC20<=2uM [16]: +VE
CN(C)[C@@H]1C(O)=C(C(N)=O)C(=O)[C@@]2(O)C(O)=C3C(=O)c4c(O)cccc4[C@@](C)(O)[C@H]3C[C@@H]12 [tetracycline]											+VE (IC20 < 20 × Cmax.tot cut-off)										DILI +VE (5-8), DILI -VE (-4) ([1]; in vivo): +VE; DILI severity category ([1]; in vivo): vLess-DILI-Concern; Structural based (HCI) [2]: +VE; Cluster 1-6 +VE Assay [5]: -VE; DILI Score (FDA) (1-8) ([6]; in vivo): 2
CN1CCN(CCCN2c3ccccc3Sc3ccc(C(F)(F)F)cc32)CC1 [trifluoperazine, reference compound]			+VE	2			-VE	Ambiguous DILI-concern			-VE		+VE				+VE		-VE	+VE	Structural based (HCI) ([2]; In vitro Assay, ref Xu 2008): +VE; in vivo DILI classification in publications of Supplemental Table 1 ([3]; publications disagreeing with the LTKB classification, ref Supplemental Table 1 publications): DILI positive in vivo; In vivo DILI ([3]; ref Xu 2008): +VE
